Among the test systems are 786-0; ACHN; CCRF-CEM; COLO 205; HL-60; HOP-92; Hs-578T; KM12; MOLT-4; Malme-3M; NCI-H522; OVCAR-3; RPMI-8226; RXF 393; SW-620; U-251; UACC-62; SF-268; SNB-75.
Holding throughout (assay): NCI anticancer screen, dose series, 48 h

“And” between values parts separate entries of the source, which are not always exact repeats. Equal entries are not always repeated.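 All cell lines were grown in 96-well plates and treated with compound for 48 hours. Here, GI50 denotes the concentration required for 50% inhibition of growth.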 The source made the active and inactive calls. No stated cut-off is given here; in the data, active = GI50 up to about 1.1 µM and inactive = higher. Where a SMILES comes first, the peptide text is derived from it. The star is where a group is joined. Cbz = O=C(OCc1ccccc1)*; NHNH2 = NN* Some results are limits rather than exact numbers.

For `Cc1cn(C2CC(N(O)Cc3ccccc3)C(CO[Si](C)(C)C(C)(C)C)O2)c(=O)[nH]c1=O` (configuration not stated), the GI50 was 17.4 µM (inactive) and 15.6 µM (inactive) with 786-0; 26.7 µM (inactive) and 17.6 µM (inactive) in the experiment with ACHN; 30.1 µM (inactive) in the experiment with CCRF-CEM; 18.5 µM (inactive) and 20.9 µM (inactive) with COLO 205; 29.8 µM (inactive) and 36.5 µM (inactive) with HL-60; 16 µM (inactive) and 18.7 µM (inactive) with HOP-92. The GI50 in the experiment on Hs-578T was 18.4 µM (inactive) and 16.5 µM (inactive); with KM12, 23 µM (inactive) and 17.2 µM (inactive); with MOLT-4, 40.2 µM (inactive) and 57.3 µM (inactive); in the experiment on Malme-3M, 17.9 µM (inactive); in the experiment with NCI-H522, 18 µM (inactive); in the experiment with OVCAR-3 it was 17.7 µM (inactive). Further, the GI50 in the experiment on RPMI-8226 was 30.6 µM (inactive); in the experiment on RXF 393, 13.6 µM (inactive); with SW-620, 19.4 µM (inactive) and 25.8 µM (inactive); with U-251 it was 15.1 µM (inactive) and 19.6 µM (inactive); with UACC-62, 12.2 µM (inactive) and 16.4 µM (inactive).
Turning to `CC(C)(C)C1CCC2c3c([nH]c4ccccc34)C3C(=O)N(c4ccc(C#N)cc4)C(=O)C3C2C1` (configuration not stated), the GI50 in the experiment on 786-0 was 12 µM (inactive); in the experiment on ACHN, 15.1 µM (inactive); in the experiment with CCRF-CEM it was 0.0108 µM (active); in the experiment on COLO 205, 21.4 µM (inactive); in the experiment on HL-60, 3.42 µM (inactive); in the experiment with HOP-92, 4.54 µM (inactive). In addition, the GI50 with Hs-578T is 11.2 µM (inactive); in the experiment with MOLT-4, 0.678 µM (active); in the experiment on Malme-3M, 17.3 µM (inactive); in the experiment with OVCAR-3, 16.4 µM (inactive); in the experiment on RPMI-8226 it was 21.3 µM (inactive); in the experiment with RXF 393 it was 3.21 µM (inactive). The GI50 was 11 µM (inactive) with SF-268, 8.13 µM (inactive) in the experiment on SW-620, 15.8 µM (inactive) with U-251 and 5.81 µM (inactive) in the experiment on UACC-62.
`O=C(CCN1CCOCC1)c1ccc(Oc2ccc(F)cc2)cc1`: the GI50 was 17.1 µM (inactive) in the experiment with 786-0; 17.9 µM (inactive) with ACHN; 30.8 µM (inactive) in the experiment on CCRF-CEM; 23 µM (inactive) in the experiment with COLO 205; 35.5 µM (inactive) with HL-60; 28.1 µM (inactive) with HOP-92. The GI50 in the experiment with Hs-578T was 19.9 µM (inactive); with KM12 it was 17.4 µM (inactive); in the experiment on MOLT-4, 23.7 µM (inactive); in the experiment on Malme-3M, 20.4 µM (inactive); with OVCAR-3, 22.3 µM (inactive); in the experiment on SNB-75, 19.6 µM (inactive). Further, the GI50 was 30.3 µM (inactive) with SW-620, 53.2 µM (inactive) in the experiment on U-251 and 18.6 µM (inactive) in the experiment with UACC-62.
On to `Cn1c(=O)cc(NNc2ccc(Cl)c(Cl)c2)[nH]c1=O`, for which the GI50 is 12.4 µM (inactive) in the experiment with 786-0; 5.46 µM (inactive) with ACHN; 13.1 µM (inactive) in the experiment on CCRF-CEM; 18.9 µM (inactive) in the experiment on COLO 205; 8 µM (inactive) in the experiment on HL-60; 14.9 µM (inactive) with HOP-92. Also, the GI50 was 20.4 µM (inactive) in the experiment with Hs-578T; 12.3 µM (inactive) in the experiment with KM12; 14.5 µM (inactive) in the experiment with MOLT-4; > 10 µM (inactive) with Malme-3M; 15.5 µM (inactive) with OVCAR-3; > 10 µM (inactive) with RPMI-8226. Also, the GI50 in the experiment with RXF 393 is 22.9 µM (inactive); with SF-268, 27.9 µM (inactive); in the experiment on SNB-75, 23 µM (inactive); with SW-620, 6.1 µM (inactive); with U-251, 12.4 µM (inactive); in the experiment with UACC-62, 1.71 µM (inactive).
Consider `Cc1cc(NS(=O)(=O)c2ccc(NO)cc2)no1`, for which the GI50 in the experiment on 786-0 was 33 µM (inactive); with ACHN it was > 100 µM (inactive); with CCRF-CEM it was 8.65 µM (inactive); with COLO 205 it was > 100 µM (inactive); in the experiment on HL-60, > 100 µM (inactive); with HOP-92 it was > 100 µM (inactive). Also, the GI50 with Hs-578T is > 100 µM (inactive); with KM12, 63.4 µM (inactive); in the experiment with MOLT-4, 43 µM (inactive); in the experiment with Malme-3M, > 100 µM (inactive); with OVCAR-3, > 100 µM (inactive); in the experiment on RXF 393, > 100 µM (inactive). The GI50 in the experiment with SF-268 is > 100 µM (inactive); in the experiment with SNB-75 it was 43.7 µM (inactive); in the experiment on SW-620 it was 29.2 µM (inactive); in the experiment with UACC-62, 56.6 µM (inactive).
Take `O=C1NN=C2C=C(c3ccc(Cl)cc3)CC(c3cccc(Cl)c3)C12` (configuration not stated): the GI50 with 786-0 was 21.4 µM (inactive); in the experiment on ACHN it was 19.9 µM (inactive); with CCRF-CEM it was 23.6 µM (inactive); in the experiment with COLO 205 it was 16.8 µM (inactive); in the experiment on HL-60, 21.2 µM (inactive); in the experiment on HOP-92 it was 9.79 µM (inactive). Besides, the GI50 with Hs-578T is 19.9 µM (inactive); in the experiment with KM12 it was 28.6 µM (inactive); in the experiment on MOLT-4, 17.9 µM (inactive); in the experiment on Malme-3M it was 37.2 µM (inactive); in the experiment on NCI-H522 it was 15.8 µM (inactive); in the experiment on OVCAR-3, 29.5 µM (inactive). Moreover, the GI50 was 20.5 µM (inactive) in the experiment with RPMI-8226; 14.5 µM (inactive) in the experiment with RXF 393; 23.1 µM (inactive) with SF-268; 27.9 µM (inactive) in the experiment on SW-620; 18.9 µM (inactive) in the experiment with U-251; 15.8 µM (inactive) in the experiment with UACC-62.
For the molecule `COc1ccc(/N=N/N2CCCC2)cc1`, the GI50 is 15.6 µM (inactive) in the experiment on 786-0; 15.5 µM (inactive) with ACHN; 16.7 µM (inactive) with CCRF-CEM; 17.9 µM (inactive) in the experiment with COLO 205; 30.1 µM (inactive) in the experiment with HL-60; 21.7 µM (inactive) with HOP-92. Moreover, the GI50 is 54.5 µM (inactive) in the experiment with Hs-578T; 0.305 µM (active) in the experiment on KM12; 26.9 µM (inactive) in the experiment with MOLT-4; 17.6 µM (inactive) in the experiment with Malme-3M; 12.9 µM (inactive) in the experiment on NCI-H522; 19.6 µM (inactive) with OVCAR-3. Further, the GI50 in the experiment on RPMI-8226 was 26.1 µM (inactive); in the experiment on RXF 393, 26.1 µM (inactive); in the experiment on SF-268, 31.8 µM (inactive); with SW-620, 26.8 µM (inactive); in the experiment with U-251, > 100 µM (inactive); in the experiment on UACC-62, 30.9 µM (inactive).
In the case of `CCOC(=O)CCC(NC(=O)OCc1ccccc1)C(=O)NC(CCC(=O)OCC)C(=O)NN` (configuration not stated) (Cbz-Glu(OEt)-Glu(OEt)-NHNH2; configuration not given here), the GI50 in the experiment on 786-0, in the experiment on ACHN, with COLO 205, with HL-60, in the experiment with HOP-92 and with Hs-578T was > 100 µM (inactive) throughout. The GI50 with KM12, in the experiment with MOLT-4, with Malme-3M, with RPMI-8226, in the experiment with SNB-75 and in the experiment with SW-620 was > 100 µM (inactive) throughout. The GI50 in the experiment with U-251 and in the experiment with UACC-62 was > 100 µM (inactive) in each case.

Values taken from ChEMBL document CHEMBL1201862, “PubChem BioAssay data set” (2004).
